Reference: article PMC8132114 (ACS combinatorial science, 2019)
*1 amine or outer side, *2 acyl side, *3 side chain or, on linkers, in order; H or OH if unused. Where a SMILES comes first, the peptide text is derived from it. [ ]: non-standard residue; d: D form. The star is where a group is joined. X1 = O=C([C@H](CCON=Cc1c(Cl)cncc1Cl)N[*:1])[*:2]; Biotin = O=C1N[C@H]2[C@H](CS[C@H]2CCCCC(=O)*)N1; pY = N[C@@H](Cc1ccc(OP(=O)(O)O)cc1)C(=O)O; Ahx = NCCCCCC(=O)O

How the values were obtained:
[1] = system: VH1; format: biochemical
[2] = system: VH1; format: biochemical; remark: listed apart in the source
[3] = target: oxime-containing phosphopeptide 6f-w202; experiment: SPR
[4] = target: oxime-containing phosphopeptide 6f-w99; experiment: SPR

Molecule: CC(C)[C@H](NC(=O)CCCCCNC(=O)CCCC[C@@H]1SC[C@@H]2NC(=O)N[C@@H]21)C(=O)N[C@@H](CC(=O)O)C(=O)N[C@@H](C)C(=O)N[C@@H](CC(=O)O)C(=O)N[C@@H](CCC(=O)O)C(=O)N[C@@H](Cc1ccc(OP(=O)(O)O)cc1)C(=O)N[C@@H](CCON=Cc1c(Cl)cncc1Cl)C(N)=O [Peptide 6f-w202] ({Biotin-Ahx}-VDADE[pY][X1]-NH2)
- percent dephosphorylation [1]: 43%

Molecule: Ac-OtGGOt-NH2 [Peptide 15]
- inhibition, VH1 compared with DUSP14 [2]: greater for VH1 than for DUSP14

B1: human DUSP14 C111S substrate-trapping mutant, O95147 1-198 (enzyme)
chain: MSSRGHSTLPRTLMAPRMISEGDIGGIAQITSSLFLGRGSVASNRHLLQARGITCIVNATIEIPNFNWPQFEYVKVPLADMPHAPIGLYFDTVADKIHSVSRKHGATLVHSAAGVSRSATLCIAYLMKFHNVCLLEAYNWVKARRPVIRPNVGFWRQLIDYERQLFGKSTVKMVQTPYGIVPDVYEKESRHLMPYWGI
- Kd [3]: 640 nM
- Kd [4]: 94 nM
